In ChEMBL document CHEMBL3045792, “Synthesis, antimicrobial activity, and molecular modeling of novel 4-(3-(4-benzylpiperazin-1-yl)propoxy)-7-methoxy-3-substituted phenyl-2H-chromen-2-one” (2013):

Legend:
Assay type in all cases: functional
Details in all cases: read-out: IZ
Staphylococcus aureus [1] = test: Antibacterial activity against Staphylococcus aureus assessed as growth inhibition at 600 ug/ml by NCCLS […] method
Bacillus subtilis [2] = test: Antibacterial activity against Bacillus subtilis assessed as growth inhibition at 600 ug/ml by NCCLS […] method
Bacillus pumilus [3] = test: Antibacterial activity against Bacillus pumilus assessed as growth inhibition at 600 ug/ml by NCCLS […] method
Bacillus pumilus [4] = test: Antibacterial activity against Bacillus pumilus assessed as growth inhibition at 900 ug/ml by NCCLS […] method
Proteus vulgaris [5] = test: Antibacterial activity against Proteus vulgaris assessed as growth inhibition at 900 ug/ml by NCCLS […] method
Klebsiella aerogenes [6] = test: Antibacterial activity against Enterobacter aerogenes assessed as growth inhibition at 900 ug/ml by NCCLS […] method
Staphylococcus aureus [7] = test: Antibacterial activity against Staphylococcus aureus assessed as growth inhibition at 900 ug/ml by NCCLS […] method
Proteus vulgaris [8] = test: Antibacterial activity against Proteus vulgaris assessed as growth inhibition at 600 ug/ml by NCCLS […] method
Klebsiella pneumoniae [9] = test: Antibacterial activity against Klebsiella pneumoniae assessed as growth inhibition at 600 ug/ml by NCCLS […] method
Bacillus subtilis [10] = test: Antibacterial activity against Bacillus subtilis assessed as growth inhibition at 900 ug/ml by NCCLS […] method
Proteus mirabilis [11] = test: Antibacterial activity against Proteus mirabilis assessed as growth inhibition at 900 ug/ml by NCCLS […] method
Priestia megaterium [12] = test: Antibacterial activity against Bacillus megaterium assessed as growth inhibition at 900 ug/ml by NCCLS […] method
Escherichia coli [13] = test: Antibacterial activity against Escherichia coli assessed as growth inhibition at 600 ug/ml by NCCLS […] method
Priestia megaterium [14] = test: Antibacterial activity against Bacillus megaterium assessed as growth inhibition at 600 ug/ml by NCCLS […] method
Streptococcus pyogenes [15] = test: Antibacterial activity against Streptococcus pyogenes assessed as growth inhibition at 600 ug/ml by NCCLS […] method
Streptococcus pyogenes [16] = test: Antibacterial activity against Streptococcus pyogenes assessed as growth inhibition at 900 ug/ml by NCCLS […] method
Klebsiella aerogenes [17] = test: Antibacterial activity against Enterobacter aerogenes assessed as growth inhibition at 600 ug/ml by NCCLS […] method
Escherichia coli [18] = test: Antibacterial activity against Escherichia coli assessed as growth inhibition at 900 ug/ml by NCCLS […] method
Proteus mirabilis [19] = test: Antibacterial activity against Proteus mirabilis assessed as growth inhibition at 600 ug/ml by NCCLS […] method
Klebsiella pneumoniae [20] = test: Antibacterial activity against Klebsiella pneumoniae assessed as growth inhibition at 900 ug/ml by NCCLS […] method
Colletotrichum falcatum [21] = test: Antifungal activity against Glomerella tucumanensis assessed as growth inhibition at 300 ug/ml
Exserohilum rostratum [22] = test: Antifungal activity against Setosphaeria rostrata assessed as growth inhibition at 300 ug/ml
Colletotrichum falcatum [23] = test: Antifungal activity against Glomerella tucumanensis assessed as growth inhibition at 600 ug/ml
Exserohilum rostratum [24] = test: Antifungal activity against Setosphaeria rostrata assessed as growth inhibition at 1200 ug/ml
Fusarium oxysporum [25] = test: Antifungal activity against Fusarium oxysporum assessed as growth inhibition at 900 ug/ml
Colletotrichum falcatum [26] = test: Antifungal activity against Glomerella tucumanensis assessed as growth inhibition at 1200 ug/ml
Exserohilum rostratum [27] = test: Antifungal activity against Setosphaeria rostrata assessed as growth inhibition at 900 ug/ml
Candida albicans [28] = test: Antifungal activity against Candida albicans assessed as growth inhibition at 1200 ug/ml
Fusarium oxysporum [29] = test: Antifungal activity against Fusarium oxysporum assessed as growth inhibition at 600 ug/ml
Exserohilum rostratum [30] = test: Antifungal activity against Setosphaeria rostrata assessed as growth inhibition at 600 ug/ml
Fusarium oxysporum [31] = test: Antifungal activity against Fusarium oxysporum assessed as growth inhibition at 300 ug/ml
Candida albicans [32] = test: Antifungal activity against Candida albicans assessed as growth inhibition at 300 ug/ml
Colletotrichum falcatum [33] = test: Antifungal activity against Glomerella tucumanensis assessed as growth inhibition at 900 ug/ml
Candida albicans [34] = test: Antifungal activity against Candida albicans assessed as growth inhibition at 900 ug/ml
Fusarium oxysporum [35] = test: Antifungal activity against Fusarium oxysporum assessed as growth inhibition at 1200 ug/ml
Candida albicans [36] = test: Antifungal activity against Candida albicans assessed as growth inhibition at 600 ug/ml

Compound | zone of inhibition at 600 µg/mL (Staphylococcus aureus [1]) [mm] | zone of inhibition at 600 µg/mL (Bacillus subtilis [2]) [mm] | zone of inhibition at 600 µg/mL (Bacillus pumilus [3]) [mm] | zone of inhibition at 900 µg/mL (Bacillus pumilus [4]) [mm] | zone of inhibition at 900 µg/mL (Proteus vulgaris [5]) [mm] | zone of inhibition at 900 µg/mL (Klebsiella aerogenes [6]) [mm] | zone of inhibition at 900 µg/mL (Staphylococcus aureus [7]) [mm] | zone of inhibition at 600 µg/mL (Proteus vulgaris [8]) [mm] | zone of inhibition at 600 µg/mL (Klebsiella pneumoniae [9]) [mm] | zone of inhibition at 900 µg/mL (Bacillus subtilis [10]) [mm] | zone of inhibition at 900 µg/mL (Proteus mirabilis [11]) [mm] | zone of inhibition at 900 µg/mL (Priestia megaterium [12]) [mm] | zone of inhibition at 600 µg/mL (Escherichia coli [13]) [mm] | zone of inhibition at 600 µg/mL (Priestia megaterium [14]) [mm] | zone of inhibition at 600 µg/mL (Streptococcus pyogenes [15]) [mm] | zone of inhibition at 900 µg/mL (Streptococcus pyogenes [16]) [mm] | zone of inhibition at 600 µg/mL (Klebsiella aerogenes [17]) [mm] | zone of inhibition at 900 µg/mL (Escherichia coli [18]) [mm] | zone of inhibition at 600 µg/mL (Proteus mirabilis [19]) [mm] | zone of inhibition at 900 µg/mL (Klebsiella pneumoniae [20]) [mm] | further results
CN[C@@H]1[C@H](O[C@H]2[C@H](O[C@H]3[C@H](O)[C@@H](O)[C@H](N=C(N)N)[C@@H](O)[C@@H]3N=C(N)N)O[C@@H](C)[C@]2(O)C=O)O[C@@H](CO)[C@H](O)[C@H]1O [STREPTOMYCIN] | 10.3 | 8.44 | 7.25 | 14.5 | 16.1 | 8.76 | 20 | 8.9 | 3.24 | 16.2 | 20.3 | 12.8 | 3.06 | 6.23 | 8.19 | 16.5 | 4.47 | 6.14 | 12.8 | 6.54 | 
COc1ccc2c(OCCCN3CCN(Cc4ccc(Cl)cc4Cl)CC3)c(-c3ccccc3)c(=O)oc2c1 | 6.5 | 9.02 | 2.01 | 4.28 | 8.04 | 8.08 | 12 | 4.02 | 8.82 | 12.1 | 9.01 | 12 | 7.02 | 6.3 | 3.27 | 6.25 | 4.25 | 14.1 | 4.91 | 14 | zone of inhibition at 300 µg/mL (Colletotrichum falcatum [21]): 3.25 mm; zone of inhibition at 300 µg/mL (Exserohilum rostratum [22]): 2.89 mm; zone of inhibition at 600 µg/mL (Colletotrichum falcatum [23]): 6.5 mm; zone of inhibition at 1200 µg/mL (Exserohilum rostratum [24]): 23.2 mm; zone of inhibition at 900 µg/mL (Fusarium oxysporum [25]): 13.6 mm; zone of inhibition at 1200 µg/mL (Colletotrichum falcatum [26]): 26.4 mm; zone of inhibition at 900 µg/mL (Exserohilum rostratum [27]): 11.6 mm; zone of inhibition at 1200 µg/mL (Candida albicans [28]): 17.2 mm; zone of inhibition at 600 µg/mL (Fusarium oxysporum [29]): 6.25 mm; zone of inhibition at 600 µg/mL (Exserohilum rostratum [30]): 5.76 mm; zone of inhibition at 300 µg/mL (Fusarium oxysporum [31]): 3.08 mm; zone of inhibition at 300 µg/mL (Candida albicans [32]): 2.01 mm; zone of inhibition at 900 µg/mL (Colletotrichum falcatum [33]): 13.8 mm; zone of inhibition at 900 µg/mL (Candida albicans [34]): 9.56 mm; zone of inhibition at 1200 µg/mL (Fusarium oxysporum [35]): 25.8 mm; zone of inhibition at 600 µg/mL (Candida albicans [36]): 4.89 mm
COc1ccc2c(OCCCN3CCN(Cc4ccc[nH]4)CC3)c(-c3ccccc3)c(=O)oc2c1 | 14.8 | 4.21 | 7.49 | 15.5 | 16 | 8.9 | 25.3 | 8.12 | 4.21 | 7.87 | 19.4 | 12.4 | 3.22 | 6.32 | 9.1 | 18 | 4.78 | 6.04 | 10.9 | 8.12 | zone of inhibition at 300 µg/mL (Colletotrichum falcatum [21]): 3.02 mm; zone of inhibition at 300 µg/mL (Exserohilum rostratum [22]): 3.54 mm; zone of inhibition at 600 µg/mL (Colletotrichum falcatum [23]): 5.84 mm; zone of inhibition at 1200 µg/mL (Exserohilum rostratum [24]): 25.3 mm; zone of inhibition at 900 µg/mL (Fusarium oxysporum [25]): 20 mm; zone of inhibition at 1200 µg/mL (Colletotrichum falcatum [26]): 19.6 mm; zone of inhibition at 900 µg/mL (Exserohilum rostratum [27]): 13.9 mm; zone of inhibition at 1200 µg/mL (Candida albicans [28]): 27 mm; zone of inhibition at 600 µg/mL (Fusarium oxysporum [29]): 10.2 mm; zone of inhibition at 600 µg/mL (Exserohilum rostratum [30]): 7.01 mm; zone of inhibition at 300 µg/mL (Fusarium oxysporum [31]): 5.34 mm; zone of inhibition at 300 µg/mL (Candida albicans [32]): 4.02 mm; zone of inhibition at 900 µg/mL (Colletotrichum falcatum [33]): 10.1 mm; zone of inhibition at 900 µg/mL (Candida albicans [34]): 13.9 mm; zone of inhibition at 1200 µg/mL (Fusarium oxysporum [35]): 31.6 mm; zone of inhibition at 600 µg/mL (Candida albicans [36]): 7.77 mm
